Measurements published in US20080146614A1, “Therapeutic Agents” (priority 2004, published 2008).

Target: T1, CB1 receptor (Homo sapiens, UniProt P21554)
T1 construct: expressed in transfected cells
Test: [35S]-GTPγS binding assay on membranes from cells stably transfected with the CB1 gene, inhibition of agonist CP55940 (EC80)
Assay type: biochemical
Settings: half maximal inhibition of GTPγS binding, EC80 concentration of CP55940
Description: 10 μg of membranes prepared from cells stably transfected with the CB1 gene were suspended in 200 μl of 100 mM NaCl, 5 mM MgCl2, 1 mM EDTA, 50 mM HEPES (pH 7.4), 1 mM DTT, 0.1% BSA and 100 μM GDP. To this was added an EC80 concentration of agonist (CP55940), the required concentration of test compound and 0.1 μCi [^35S]-GTPγS. The reaction was allowed to proceed at 30° C. for 45 min. Samples were then transferred on to GF/B filters using a cell harvester and washed with wash buffer (50 mM Tris (pH 7.4), 5 mM MgCl2, 50 mM NaCl). Filters were then covered with scintilant and counted for the amount of [^35S]-GTPγS retained by the filter.
Activity is measured in the absence of all ligands (minimum activity) or in the presence of an EC80 concentration of CP55940 (maximum activity). These activities are set as 0% and 100% activity respectively. At various concentrations of novel ligand, activity is calculated as a percentage of the maximum activity and plotted. The data are fitted using the equation y=A+((B−A)/1+((C/x)UD)) and the IC50 value determined as the concentration required to give half maximal inhibition of GTPγS binding under the conditions used.

T1 sequence (P21554 whole entry): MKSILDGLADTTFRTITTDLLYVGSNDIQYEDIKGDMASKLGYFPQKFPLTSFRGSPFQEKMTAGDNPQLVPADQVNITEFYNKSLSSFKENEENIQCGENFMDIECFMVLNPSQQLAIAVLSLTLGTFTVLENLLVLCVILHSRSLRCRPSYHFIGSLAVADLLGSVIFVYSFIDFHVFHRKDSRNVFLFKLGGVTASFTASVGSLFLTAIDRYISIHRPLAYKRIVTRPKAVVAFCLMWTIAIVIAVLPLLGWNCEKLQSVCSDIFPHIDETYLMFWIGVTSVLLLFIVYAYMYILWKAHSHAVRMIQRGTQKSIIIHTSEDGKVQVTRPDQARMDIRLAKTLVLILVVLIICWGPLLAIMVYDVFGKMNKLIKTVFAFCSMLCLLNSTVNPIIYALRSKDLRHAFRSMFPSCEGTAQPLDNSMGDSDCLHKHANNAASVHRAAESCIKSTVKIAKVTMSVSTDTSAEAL

For `CCCS(=O)(=O)Oc1ccc(-c2c(CO)c(C(=O)NN3CCCCC3)nn2-c2ccc(Cl)cc2Cl)cc1` [Example 1, Propane-1-sulfonic acid 4-[2-(2,4-dichlorophenyl)-4-hydroxymethyl-5-(piperidin-1-ylcarbamoyl)-2H-pyrazol-3-yl]-phenyl ester], which IC50 is on record?
Its IC50 is 3.3 nM.
